Results from ChEMBL document CHEMBL4007390, “Design, synthesis and biological evaluation of indolin-2-one-based derivatives as potent, selective and efficacious inhibitors of FMS-like tyrosine kinase3 (FLT3)” (Eur J Med Chem, 2017).

Assays:
MV4-11 [1] = test: Antiproliferative activity against human MV4-11 cells harboring FLT3 ITD mutant after 72 hrs by MTS assay; type: functional, cell-based; conditions: MV4-11, 72 h
Homo sapiens = species on record: Homo sapiens; test: Inhibition of human FLT3 ITD mutant at 0.1 uM relative to control
[2] = biological target: Vascular endothelial growth factor receptor 1 (Homo sapiens) (UniProt P17948); test: Inhibition of human VEGFR1 at 0.1 uM relative to control
[3] = biological target: Vascular endothelial growth factor receptor 2 (Homo sapiens) (UniProt P35968); test: Inhibition of human VEGFR2 at 0.1 uM relative to control
[4] = biological target: Platelet-derived growth factor receptor alpha (Homo sapiens, UniProt P16234); test: Inhibition of human PDGFRalpha at 0.1 uM relative to control
[5] = test system: Platelet-derived growth factor receptor alpha (Homo sapiens), P16234 [T674I]; test: Inhibition of human PDGFRalpha T674I mutant at 0.1 uM relative to control
[6] = biological target: Epidermal growth factor receptor (Homo sapiens) (UniProt P00533); test: Inhibition of human EGFR at 0.1 uM relative to control
[7] = biological target: Mast/stem cell growth factor receptor Kit (Homo sapiens, UniProt P10721); test: Inhibition of human KIT at 0.1 uM relative to control
[8] = test system: RAF proto-oncogene serine/threonine-protein kinase (Homo sapiens), P04049 [Y340D,Y341D]; test: Inhibition of human RAF1 Y340D/Y341D double mutant at 0.1 uM relative to control
[9] = biological target: Aurora kinase A (Homo sapiens) (UniProt O14965); test: Inhibition of human Aurora A at 0.1 uM relative to control
[10] = biological target: Tyrosine-protein kinase JAK2 (Homo sapiens) (UniProt O60674); test: Inhibition of human JAK2 at 0.1 uM relative to control
[11] = biological target: Tyrosine-protein kinase receptor UFO (Homo sapiens) (UniProt P30530); test: Inhibition of human AXL at 0.1 uM relative to control
[12] = biological target: Insulin receptor (Homo sapiens) (UniProt P06213); test: Inhibition of human INSR at 0.1 uM relative to control
[13] = biological target: Mitogen-activated protein kinase 1 (Homo sapiens) (UniProt P28482); test: Inhibition of human MAPK1 at 0.1 uM relative to control
[14] = biological target: Serine/threonine-protein kinase PAK 4 (Homo sapiens) (UniProt O96013); test: Inhibition of human PAK4 at 0.1 uM relative to control
[15] = biological target: Tyrosine-protein kinase Lck (Homo sapiens) (UniProt P06239); test: Inhibition of human LCK at 0.1 uM relative to control
[16] = biological target: Discoidin domain-containing receptor 2 (Homo sapiens) (UniProt Q16832); test: Inhibition of human DDR2 at 0.1 uM relative to control
[17] = biological target: Tyrosine-protein kinase ZAP-70 (Homo sapiens) (UniProt P43403); test: Inhibition of human ZAP70 at 0.1 uM relative to control
[18] = biological target: Ribosomal protein S6 kinase beta-1 (Homo sapiens) (UniProt P23443); test: Inhibition of human RPS6KB1 at 0.1 uM relative to control
[19] = biological target: Receptor-type tyrosine-protein kinase FLT3 (Homo sapiens, UniProt P36888, D835Y); test: Inhibition of human FLT3 D835Y mutant
MOLM-13 = test: Antiproliferative activity against human MOLM13 cells harboring FLT3 ITD mutant after 72 hrs by MTS assay; conditions: MOLM-13, 72 h
Jurkat = test: Antiproliferative activity against FLT3 negative human Jurkat cells after 72 hrs by MTS assay; type: functional, cell-based
Kasumi 1 = test: Antiproliferative activity against human Kasumi-1 cells harboring […] after 72 hrs by MTS assay; type: functional, cell-based; conditions: Kasumi 1, 72 h
COLO 205 = test: Antiproliferative activity against human COLO205 cells harboring B-Raf after 72 hrs by MTS assay; type: functional, cell-based; conditions: COLO 205, 72 h
NCI-H2228 = test: Antiproliferative activity against human NCI-H2228 cells harboring ALK after 72 hrs by MTS assay; type: functional, cell-based; conditions: NCI-H2228, 72 h
[20] = Tmax in Balb/c nude mouse at 40 mg/kg, po via gavage by LC-MS/MS analysis; type: ADME, organism-based; conditions: in vivo
[21] = Half life in Balb/c nude mouse at 40 mg/kg, po via gavage by LC-MS/MS analysis; type: ADME, organism-based; conditions: in vivo
[22] = Cmax in Balb/c nude mouse at 40 mg/kg, po via gavage by LC-MS/MS analysis; type: ADME, organism-based; set-up: dose 40 mg/kg, route oral; conditions: in vivo
[23] = AUC (0 to infinity) in Balb/c nude mouse at 40 mg/kg, po via gavage by LC-MS/MS analysis; type: ADME, organism-based; set-up: dose 40 mg/kg, time infinity, route oral; conditions: in vivo
MV4-11 [24] = test: Antitumor activity against human MV4-11 cells xenografted in Harlan nude mouse assessed as tumor growth inhibition at 20 mg/kg, ig bid for 20 days relative to control; type: functional; conditions: MV4-11, po, 480 h, read-out: TGI
MV4-11 [25] = test: Antitumor activity against human MV4-11 cells xenografted in Harlan nude mouse assessed as tumor growth inhibition at 80 mg/kg, ig bid for 20 days relative to control; type: functional; conditions: MV4-11, po, 480 h, read-out: TGI
MV4-11 [26] = test: Antitumor activity against human MV4-11 cells xenografted in Harlan nude mouse assessed as tumor growth inhibition at 10 mg/kg, ig bid for 20 days relative to control; type: functional; conditions: MV4-11, po, 480 h, read-out: TGI
Cytochrome P450 1A2 = Cytochrome P450 1A2 (Homo sapiens, UniProt P05177); test: Inhibition of microsomal CYP1A2 (unknown origin) using phenacetin as substrate preincubated for 5 mins followed by NADPH addition by LC-MS/MS analysis; type: ADME
Cytochrome P450 2C8 = Cytochrome P450 2C8 (Homo sapiens, UniProt P10632); test: Inhibition of microsomal CYP2C8 (unknown origin) using amodiaquine as substrate preincubated for 5 mins followed by NADPH addition by LC-MS/MS analysis; type: ADME
[27] = biological target: Receptor-type tyrosine-protein kinase FLT3 (Homo sapiens) (UniProt P36888); conditions: 0.1 uM
Description: Inhibition of human FLT3 at 0.1 uM relative to control

[28] = test system: Receptor-type tyrosine-protein kinase FLT3 (Homo sapiens), P36888 [D835Y]; conditions: 0.1 uM

Ribosomal protein S6 kinase beta-1 (Homo sapiens), sequence (P23443 whole entry, looked up): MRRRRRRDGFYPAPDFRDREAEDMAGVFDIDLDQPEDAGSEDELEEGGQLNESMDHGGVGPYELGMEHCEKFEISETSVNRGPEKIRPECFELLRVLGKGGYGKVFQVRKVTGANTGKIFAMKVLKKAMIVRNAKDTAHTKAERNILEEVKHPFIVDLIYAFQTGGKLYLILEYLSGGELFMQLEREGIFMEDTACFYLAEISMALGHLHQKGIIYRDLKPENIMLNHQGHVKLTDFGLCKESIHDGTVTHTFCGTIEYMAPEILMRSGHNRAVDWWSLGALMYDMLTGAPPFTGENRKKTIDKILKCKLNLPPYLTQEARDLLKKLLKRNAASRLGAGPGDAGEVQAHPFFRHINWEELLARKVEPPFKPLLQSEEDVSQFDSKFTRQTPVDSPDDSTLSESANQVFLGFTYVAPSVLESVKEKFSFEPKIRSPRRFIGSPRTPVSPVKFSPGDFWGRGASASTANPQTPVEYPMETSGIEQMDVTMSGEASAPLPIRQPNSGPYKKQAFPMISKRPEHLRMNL
Discoidin domain-containing receptor 2 (Homo sapiens), sequence (Q16832 whole entry, the tested form may be a part): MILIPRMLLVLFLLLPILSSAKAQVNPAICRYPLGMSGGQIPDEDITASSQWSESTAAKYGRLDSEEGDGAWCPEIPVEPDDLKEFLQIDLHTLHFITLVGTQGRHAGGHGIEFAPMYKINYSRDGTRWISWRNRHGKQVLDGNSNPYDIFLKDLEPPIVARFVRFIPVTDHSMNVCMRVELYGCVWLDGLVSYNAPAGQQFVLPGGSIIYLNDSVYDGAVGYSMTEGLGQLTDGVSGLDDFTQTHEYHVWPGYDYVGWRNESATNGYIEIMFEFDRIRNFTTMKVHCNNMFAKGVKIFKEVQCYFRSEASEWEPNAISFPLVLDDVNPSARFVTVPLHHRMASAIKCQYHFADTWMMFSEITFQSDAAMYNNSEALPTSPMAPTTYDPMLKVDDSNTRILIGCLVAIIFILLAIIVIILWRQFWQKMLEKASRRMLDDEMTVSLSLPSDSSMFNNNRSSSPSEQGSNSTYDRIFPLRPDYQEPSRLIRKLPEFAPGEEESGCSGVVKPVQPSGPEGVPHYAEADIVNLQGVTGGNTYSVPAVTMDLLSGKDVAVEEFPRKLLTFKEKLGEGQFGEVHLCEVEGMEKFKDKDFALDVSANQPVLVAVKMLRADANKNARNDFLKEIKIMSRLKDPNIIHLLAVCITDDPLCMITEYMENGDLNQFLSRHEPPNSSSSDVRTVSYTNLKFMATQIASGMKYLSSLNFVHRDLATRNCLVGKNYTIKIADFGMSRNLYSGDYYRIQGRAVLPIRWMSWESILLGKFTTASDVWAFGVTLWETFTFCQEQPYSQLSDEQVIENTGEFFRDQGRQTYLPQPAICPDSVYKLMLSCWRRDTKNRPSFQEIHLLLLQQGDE
Tyrosine-protein kinase JAK2 (Homo sapiens), sequence (O60674 whole entry): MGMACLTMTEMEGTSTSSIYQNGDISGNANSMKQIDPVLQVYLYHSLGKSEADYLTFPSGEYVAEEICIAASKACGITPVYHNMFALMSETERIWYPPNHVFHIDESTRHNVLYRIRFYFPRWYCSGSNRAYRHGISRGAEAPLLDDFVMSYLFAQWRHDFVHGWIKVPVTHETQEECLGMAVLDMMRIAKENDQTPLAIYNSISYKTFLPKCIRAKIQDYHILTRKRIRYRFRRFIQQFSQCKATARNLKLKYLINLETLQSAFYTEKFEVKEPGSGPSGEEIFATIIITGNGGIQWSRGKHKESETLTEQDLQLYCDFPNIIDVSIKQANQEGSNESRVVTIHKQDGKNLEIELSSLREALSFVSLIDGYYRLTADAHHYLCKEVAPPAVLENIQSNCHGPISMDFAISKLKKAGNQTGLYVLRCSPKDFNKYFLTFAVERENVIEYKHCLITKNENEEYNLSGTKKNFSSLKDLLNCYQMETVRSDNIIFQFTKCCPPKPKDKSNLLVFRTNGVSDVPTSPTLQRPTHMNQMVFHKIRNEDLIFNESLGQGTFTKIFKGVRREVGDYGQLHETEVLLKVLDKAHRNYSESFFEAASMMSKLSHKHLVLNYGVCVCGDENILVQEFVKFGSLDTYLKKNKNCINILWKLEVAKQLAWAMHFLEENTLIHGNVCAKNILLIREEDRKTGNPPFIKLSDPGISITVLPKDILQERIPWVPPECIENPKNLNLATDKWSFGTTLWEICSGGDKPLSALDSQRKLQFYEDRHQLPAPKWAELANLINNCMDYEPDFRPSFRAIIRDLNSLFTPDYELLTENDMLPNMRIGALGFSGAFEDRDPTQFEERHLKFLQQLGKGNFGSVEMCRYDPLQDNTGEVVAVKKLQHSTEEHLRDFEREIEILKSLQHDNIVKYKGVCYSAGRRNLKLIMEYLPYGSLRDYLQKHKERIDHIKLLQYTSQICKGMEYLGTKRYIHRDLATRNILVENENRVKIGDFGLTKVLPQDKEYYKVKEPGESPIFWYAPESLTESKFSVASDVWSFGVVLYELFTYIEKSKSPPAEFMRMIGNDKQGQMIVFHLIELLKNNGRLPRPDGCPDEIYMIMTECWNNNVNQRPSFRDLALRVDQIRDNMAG
Platelet-derived growth factor receptor alpha (Homo sapiens), P16234 [T674I], sequence (P16234 whole entry T674I): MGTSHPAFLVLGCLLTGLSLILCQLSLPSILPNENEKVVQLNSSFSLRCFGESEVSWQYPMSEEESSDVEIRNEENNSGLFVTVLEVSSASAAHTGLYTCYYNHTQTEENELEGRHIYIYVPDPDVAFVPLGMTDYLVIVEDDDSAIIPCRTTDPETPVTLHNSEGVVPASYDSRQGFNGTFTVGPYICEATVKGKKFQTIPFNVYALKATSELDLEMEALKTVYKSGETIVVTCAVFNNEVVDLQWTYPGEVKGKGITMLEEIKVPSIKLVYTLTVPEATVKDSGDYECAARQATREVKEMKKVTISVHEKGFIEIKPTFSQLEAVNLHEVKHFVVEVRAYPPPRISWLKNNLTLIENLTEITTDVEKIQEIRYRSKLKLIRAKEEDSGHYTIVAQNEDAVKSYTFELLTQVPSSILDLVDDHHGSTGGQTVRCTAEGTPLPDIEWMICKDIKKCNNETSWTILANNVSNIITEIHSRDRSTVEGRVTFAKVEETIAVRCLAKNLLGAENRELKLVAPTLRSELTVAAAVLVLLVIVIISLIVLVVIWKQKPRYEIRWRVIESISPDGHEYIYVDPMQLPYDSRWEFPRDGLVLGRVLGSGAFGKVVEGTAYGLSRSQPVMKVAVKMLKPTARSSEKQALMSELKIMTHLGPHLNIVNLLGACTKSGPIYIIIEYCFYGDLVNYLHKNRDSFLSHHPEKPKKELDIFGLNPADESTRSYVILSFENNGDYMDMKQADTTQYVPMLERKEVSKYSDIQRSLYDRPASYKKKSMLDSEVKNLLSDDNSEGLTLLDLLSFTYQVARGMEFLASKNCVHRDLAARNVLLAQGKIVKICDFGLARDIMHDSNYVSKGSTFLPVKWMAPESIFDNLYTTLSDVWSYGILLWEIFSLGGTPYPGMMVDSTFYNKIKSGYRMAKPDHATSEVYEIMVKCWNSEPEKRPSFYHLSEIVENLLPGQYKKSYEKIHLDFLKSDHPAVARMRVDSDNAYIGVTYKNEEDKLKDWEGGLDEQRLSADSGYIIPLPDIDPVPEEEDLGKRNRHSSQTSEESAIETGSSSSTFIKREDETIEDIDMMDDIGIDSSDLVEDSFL
Tyrosine-protein kinase receptor UFO (Homo sapiens), sequence (P30530 whole entry): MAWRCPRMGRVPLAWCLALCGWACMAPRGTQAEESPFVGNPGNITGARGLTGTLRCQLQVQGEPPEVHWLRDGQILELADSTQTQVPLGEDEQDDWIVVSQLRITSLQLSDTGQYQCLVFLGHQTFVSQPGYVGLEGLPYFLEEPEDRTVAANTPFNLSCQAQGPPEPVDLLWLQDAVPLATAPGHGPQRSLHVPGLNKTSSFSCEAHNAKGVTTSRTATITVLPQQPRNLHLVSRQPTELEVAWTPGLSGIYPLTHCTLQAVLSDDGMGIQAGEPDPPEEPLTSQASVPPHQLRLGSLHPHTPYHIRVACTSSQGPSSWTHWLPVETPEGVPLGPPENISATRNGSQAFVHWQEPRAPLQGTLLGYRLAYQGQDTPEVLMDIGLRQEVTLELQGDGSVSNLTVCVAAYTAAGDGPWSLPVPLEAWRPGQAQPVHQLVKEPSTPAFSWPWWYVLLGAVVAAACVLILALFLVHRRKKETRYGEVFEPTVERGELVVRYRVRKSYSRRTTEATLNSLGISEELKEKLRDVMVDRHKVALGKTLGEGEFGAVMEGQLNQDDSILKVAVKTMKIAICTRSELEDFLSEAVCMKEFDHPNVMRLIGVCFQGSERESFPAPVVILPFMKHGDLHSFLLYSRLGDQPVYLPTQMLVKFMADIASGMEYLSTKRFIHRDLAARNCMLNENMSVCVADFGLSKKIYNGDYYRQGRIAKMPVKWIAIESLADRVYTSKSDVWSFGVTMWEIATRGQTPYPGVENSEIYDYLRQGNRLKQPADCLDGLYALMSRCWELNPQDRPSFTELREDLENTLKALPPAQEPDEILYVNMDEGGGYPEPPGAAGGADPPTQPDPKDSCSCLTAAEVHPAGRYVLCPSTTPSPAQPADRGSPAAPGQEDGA
Tyrosine-protein kinase Lck (Homo sapiens), sequence (P06239 2-509 limits assumed): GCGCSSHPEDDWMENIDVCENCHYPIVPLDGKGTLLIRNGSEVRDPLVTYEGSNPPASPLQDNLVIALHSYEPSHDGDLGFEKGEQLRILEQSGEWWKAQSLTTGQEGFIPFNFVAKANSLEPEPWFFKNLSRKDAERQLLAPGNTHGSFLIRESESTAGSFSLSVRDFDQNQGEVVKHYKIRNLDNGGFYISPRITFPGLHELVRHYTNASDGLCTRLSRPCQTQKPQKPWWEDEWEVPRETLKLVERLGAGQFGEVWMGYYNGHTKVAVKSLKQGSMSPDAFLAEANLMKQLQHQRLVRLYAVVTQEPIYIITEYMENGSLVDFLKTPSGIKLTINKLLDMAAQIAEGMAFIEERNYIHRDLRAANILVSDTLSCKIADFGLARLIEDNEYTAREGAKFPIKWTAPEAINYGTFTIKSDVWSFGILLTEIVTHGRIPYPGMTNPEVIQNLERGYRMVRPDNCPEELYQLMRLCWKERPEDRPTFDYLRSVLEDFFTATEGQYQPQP
Platelet-derived growth factor receptor alpha, sequence (P16234 whole entry): as the sequence (P16234 whole entry T674I) above, with I674T counted along it

Question: What does the source list for `Cc1[nH]c(/C=C2\C(=O)Nc3ccc(F)cc32)c(C)c1NC(=O)[C@H]1CCCN1.Cl`?
Answer: IC50 (MV4-11 [1]): 0.0248 µM; inhibition (Homo sapiens): 105%; inhibition [2]: 30%; inhibition [3]: 38%; inhibition [4]: 49%; inhibition [5]: 98%; inhibition [6]: -1%; inhibition [7]: 85%; inhibition [8]: 18%; inhibition [9]: 2%; inhibition [10]: -4%; inhibition [11]: 44%; inhibition [12]: 16%; inhibition [13]: -7%; inhibition [14]: 14%; inhibition [15]: 43%; inhibition [16]: 7%; inhibition [17]: 0%; inhibition [18]: 8%; IC50 [19]: 0.0027 µM; IC50 (MOLM-13): 0.0236 µM; IC50 (Jurkat): 4.18 µM; IC50 (Kasumi 1): 0.251 µM; IC50 (COLO 205): 6.6 µM; IC50 (NCI-H2228): 3.44 µM; Tmax [20]: 2 h; half-life [21]: 1.6 h; Cmax [22]: 709 ng/mL; AUC(0-inf) [23]: 3070 ng·h/mL; inhibition in vivo at 20 mg/kg (MV4-11 [24]): 99.8%; inhibition in vivo at 80 mg/kg (MV4-11 [25]): 98.9%; inhibition in vivo at 10 mg/kg (MV4-11 [26]): 88.7%; IC50 (Cytochrome P450 1A2): 17.7 µM; IC50 (Cytochrome P450 2C8): > 33 µM; inhibition [27]: 95%; inhibition [28]: 93%
